Experimental findings from ChEMBL document CHEMBL1158253, “Isolation and structure of hemibastadinols 1-3 from the Papua New Guinea marine sponge Ianthella basta” (1996) are described below.

The test system of one experiment is Candida albicans. Description: Antimicrobial activity against Candida albicans ATCC 90028 up to 100 ug/disk after 42 hrs by disk susceptibility test. The class given is functional, organism-based.
A further experiment relates to Cryptococcus neoformans. Description: Antimicrobial activity against Cryptococcus neoformans ATCC 90112 up to 100 ug/disk after 42 hrs by disk susceptibility test. The class given is functional, organism-based.
For a further experiment, the system named is Neisseria gonorrhoeae. Description: Antimicrobial activity against Neisseria gonorrhoeae ATCC 49226 after 16 hrs by disk susceptibility test. In kind it is functional.
A further experiment relates to Staphylococcus aureus. Description: Antimicrobial activity against Staphylococcus aureus ATCC 29213 after 16 hrs by disk susceptibility test. In kind it is functional.
In a further experiment the test system is Enterococcus faecalis. The experiment is described as follows: Antimicrobial activity against Enterococcus faecalis ATCC 29212 after 16 hrs by disk susceptibility test. In kind it is functional.
The test system of a further experiment is Escherichia coli. Description: Antimicrobial activity against Escherichia coli ATCC 25922 up to 100 ug/disk after 16 hrs by disk susceptibility test. In kind it is functional, organism-based.

The source made the active and inactive calls. The rule behind the calls is not given here.

As for `NC(=O)C(=O)NCCc1ccc(O)c(Br)c1`, the outcome with Candida albicans and in the experiment on Cryptococcus neoformans was inactive. The MIC in the experiment on Neisseria gonorrhoeae amounted to 10 µg.

For `COc1ccc(C/C(=N/O)C(=O)NCCc2ccc(O)c(Br)c2)cc1Br`, the outcome in the experiment on Candida albicans and in the experiment on Cryptococcus neoformans was inactive. The MIC against Staphylococcus aureus and in the experiment with Neisseria gonorrhoeae was 6.25 µg each time.

`O=C(NCCc1ccc(O)c(Br)c1)/C(Cc1ccc(Oc2cc(C/C(=N/O)C(=O)NCCc3ccc(O)c(Br)c3)cc(Br)c2O)c(Br)c1)=N\O` [BASTADIN1]: the result in the experiment on Candida albicans, in the experiment with Escherichia coli and in the experiment on Cryptococcus neoformans was inactive. In addition, the MIC with Enterococcus faecalis worked out at 12.5 µg; with Staphylococcus aureus, 6.25 µg; against Neisseria gonorrhoeae, 50 µg.

For the compound `O=C(NCCc1ccc(O)c(Br)c1)/C(Cc1cc(Br)c(O)c(Oc2c(Br)cc(C/C(=N\O)C(=O)NCCc3ccc(O)c(Br)c3)cc2Br)c1)=N\O` [BASTADIN 2], the result with Candida albicans and with Cryptococcus neoformans was inactive. The results for the MIC against Enterococcus faecalis, against Staphylococcus aureus and against Neisseria gonorrhoeae were 50 µg, 6.25 µg and 50 µg, respectively.

For `O=C(NCCc1ccc(O)c(Br)c1)/C(Cc1cc(Br)c(O)c(-c2cc(C/C(=N/O)C(=O)NCCc3ccc(O)c(Br)c3)cc(Br)c2O)c1)=N\O` [BASTADIN 3], the result with Candida albicans and with Cryptococcus neoformans was inactive. Also, the values for the MIC in the experiment on Enterococcus faecalis, in the experiment with Staphylococcus aureus and against Neisseria gonorrhoeae were 3.12 µg, 1.56 µg and 0.78 µg, respectively.

For the compound `O=C1N/C=C/c2ccc(c(Br)c2)Oc2cc(cc(Br)c2O)CCNC(=O)/C(=N/O)Cc2cc(Br)c(c(Br)c2)Oc2cc(cc(Br)c2O)C/C1=N\O` [BASTADIN 4], the outcome with Candida albicans and in the experiment with Cryptococcus neoformans was inactive. Besides, the MIC was 50 µg against Enterococcus faecalis, 12.5 µg in the experiment with Staphylococcus aureus and 12.5 µg in the experiment with Neisseria gonorrhoeae.

Consider `O=C1NCCc2cc(Br)c(O)c(c2)Oc2ccc(cc2Br)CCNC(=O)/C(=N\O)Cc2cc(Br)c(O)c(c2)Oc2c(Br)cc(cc2Br)C/C1=N/O` [BASTADIN 5], for which the outcome with Candida albicans and in the experiment with Cryptococcus neoformans was inactive. In addition, the MIC in the experiment with Enterococcus faecalis came out at 50 µg; in the experiment with Staphylococcus aureus it was 12.5 µg; in the experiment with Neisseria gonorrhoeae it was 50 µg.

For `O=C1NCCc2cc(Br)c(O)c(c2)Oc2c(Br)cc(cc2Br)CCNC(=O)/C(=N/O)Cc2cc(Br)c(O)c(c2)Oc2c(Br)cc(cc2Br)C/C1=N\O` [BASTADIN 6], the outcome with Candida albicans and in the experiment on Cryptococcus neoformans was inactive. The MIC against Enterococcus faecalis came out at 12.5 µg; against Staphylococcus aureus it was 6.25 µg.

On to `O=C(NCCc1ccc(O)c(Br)c1)/C(Cc1ccc(O)c(Br)c1)=N\O` [HEMIBASTADIN 1], for which the outcome in the experiment on Candida albicans and in the experiment with Cryptococcus neoformans was inactive. The MIC against Enterococcus faecalis was found to be 50 µg; with Staphylococcus aureus, 1.56 µg; with Neisseria gonorrhoeae, 12.5 µg.

As to `O=C(NCCc1ccc(O)c(Br)c1)/C(Cc1cc(Br)c(O)c(Br)c1)=N\O` [HEMIBASTADIN 2], the result in the experiment on Candida albicans and in the experiment on Cryptococcus neoformans was inactive. The MIC in the experiment on Staphylococcus aureus and against Neisseria gonorrhoeae was 3.12 µg throughout.

Turning to `O=C(NCCc1ccc(O)c(Br)c1)[C@@H](O)Cc1ccc(O)c(Br)c1` [HEMIBASTADINOL 1], the outcome in the experiment with Candida albicans and with Cryptococcus neoformans was inactive. The MIC in the experiment with Enterococcus faecalis and in the experiment on Neisseria gonorrhoeae was 50 µg each time.
